Experimental findings from US8163737B2 (Vertex Pharmaceuticals Incorporated, priority 2006, dated 2012) are described below.

Test [1] deals with T1, CGRP receptor (SK-N-MC membrane) (Homo sapiens, UniProt O60894+Q16602).
T1 construct: Purified SK-N-MC membrane was purchased from Perkin Elmer; purchased Perkin Elmer; host or cells: SK-N-MC membrane
Description: I125-CGRP binding displacement assay on purified SK-N-MC membrane. In short, it runs like this:
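Displacement of I125-CGRP binding was measured by filtration and scintillation counting after 2 h room-temperature incubation with compound and SK-N-MC membranes (buffer pH 7.4, MgCl2, BSA, Tween). Percent displacement calculated against total binding and 1 uM cold CGRP nonspecific controls, then curve-fitted.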

For test [2], the target named is endogenous CGRP receptor (Homo sapiens, UniProt O60894+Q16602). Description: CGRP functional antagonism using SK-N-MC-BLA (4C10), β-lactamase transcriptional reporter assay. It is filed as cell-based. The following applies: SK-N-MC (4C10) cells, inhibition of β-lactamase expression in the presence of 200 pM CGRP.
Chain of endogenous CGRP receptor (Q16602 23-461): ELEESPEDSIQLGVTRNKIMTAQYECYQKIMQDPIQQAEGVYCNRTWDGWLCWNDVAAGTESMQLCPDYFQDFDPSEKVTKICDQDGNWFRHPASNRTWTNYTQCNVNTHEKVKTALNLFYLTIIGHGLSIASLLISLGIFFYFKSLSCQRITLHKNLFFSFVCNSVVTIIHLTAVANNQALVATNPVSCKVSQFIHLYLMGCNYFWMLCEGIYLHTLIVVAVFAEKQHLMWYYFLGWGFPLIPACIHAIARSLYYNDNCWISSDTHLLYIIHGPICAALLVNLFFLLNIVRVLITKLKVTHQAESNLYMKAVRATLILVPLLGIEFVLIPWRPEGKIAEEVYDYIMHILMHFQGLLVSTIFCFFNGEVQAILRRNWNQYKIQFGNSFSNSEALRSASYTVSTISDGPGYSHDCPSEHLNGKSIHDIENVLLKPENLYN
Chain of endogenous CGRP receptor (O60894 27-148): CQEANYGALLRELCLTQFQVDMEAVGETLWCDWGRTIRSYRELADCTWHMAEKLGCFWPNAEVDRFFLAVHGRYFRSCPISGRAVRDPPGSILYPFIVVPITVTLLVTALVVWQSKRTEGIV

T1 sequence (Q16602 23-461): as the sequence (Q16602 23-461) above
T1 sequence (O60894 27-148): as the sequence (O60894 27-148) above

`CC(C)(C)CCN1C(=O)[C@H](CC(=O)N2CCC(N3CCc4ccccc4NC3=O)CC2)SC1c1ccn(C2CCNCC2)n1` (stereo partly drawn) [Compound 491] yielded a Ki in test [1] of less than 1000 nM. Also, the IC50 in test [2] is less than 1000 nM.
In the case of `CC(C)(C)CCN1C(=O)[C@H](CC(=O)N2CCC(N3CCc4ccccc4NC3=O)CC2)SC1c1cnc(C2CCN(C(=O)OC(C)(C)C)CC2)s1` (stereo partly drawn) [Compound 492, tert-Butyl 4-(5-((5S)-3-(3,3-dimethylbutyl)-4-oxo-5-(2-oxo-2-(4-(2-oxo-4,5-dihydro-1H-benzo[d][1,3]diazepin-3(2H)-yl)piperidin-1-yl)ethyl)thiazolidin-2-yl)thiazol-2-yl)piperidine-1-carboxylate], the Ki in test [1] was less than 1000 nM. For the same molecule, the 50% inhibitory concentration (IC50) in test [2] is 1000 to 5000 nM.
`CC(C)CN1C(=O)[C@H](CC(=O)N2CCC(N3CCc4ccccc4NC3=O)CC2)SC1c1cccc(F)c1N1CCN(C(C)(C)C)CC1` (stereo partly drawn) [Compound 493] returned a Ki in test [1] of less than 1000 nM. In test [2], the IC50 was less than 1000 nM.
`CC(C)CN1C(=O)[C@H](CC(=O)N2CCC(N3CCc4ccccc4NC3=O)CC2)SC1c1cccc(F)c1N1CCN(C(C)(C)C)CC1` (stereo partly drawn) [Compound 494] came in with a Ki in test [1] of less than 1000 nM. For the same molecule, the IC50 in test [2] is less than 1000 nM.
In test [1], `CC(C)CN1C(=O)[C@H](CC(=O)N2CCC(n3c(=O)[nH]c4ncccc43)CC2)S[C@@H]1c1cccc(F)c1N1CCN(C(C)(C)C)CC1` [Compound 495] gave an inhibition constant (Ki) of less than 1000 nM. In test [2], the IC50 is less than 1000 nM.
As to `CC(C)CN1C(=O)[C@H](CC(=O)N2CCC(n3c(=O)[nH]c4ncccc43)CC2)S[C@H]1c1cccc(F)c1N1CCN(C(C)(C)C)CC1` [Compound 496], in test [1], the Ki was less than 1000 nM. Moreover, the IC50 in test [2] was less than 1000 nM.
In test [1], `CC(C)(C)CCN1C(=O)[C@H](CC(=O)N2CCC(N3CCc4ccccc4NC3=O)CC2)SC1c1cnc(C2CCNCC2)s1` (stereo partly drawn) [Compound 497, (5S)-3-(3,3-Dimethylbutyl)-5-(2-oxo-2-(4-(2-oxo-4,5-dihydro-1H-benzo[d][1,3]diazepin-3(2H)-yl)piperidin-1-yl)ethyl)-2-(2-(piperidin-4-yl)thiazol-5-yl)thiazolidin-4-one] showed a Ki of less than 1000 nM. The IC50 in test [2] was less than 1000 nM.
Consider `CC(C)CN1CCC(c2ncc(C3S[C@@H](CC(=O)N4CCC(N5CCc6ccccc6NC5=O)CC4)C(=O)N3CCC(C)(C)C)s2)CC1` (stereo partly drawn) [Compound 498, (5S)-3-(3,3-Dimethylbutyl)-2-(2-(1-isobutylpiperidin-4-yl)thiazol-5-yl)-5-(2-oxo-2-(4-(2-oxo-4,5-dihydro-1H-benzo[d][1,3]diazepin-3(2H)-yl)piperidin-1-yl)ethyl)thiazolidin-4-one], for which the Ki in test [1] was less than 1000 nM. The IC50 in test [2] was less than 1000 nM.
For the molecule `CC(C)(C)CCN1C(=O)[C@H](CC(=O)N2CCC(N3CCc4ccccc4NC3=O)CC2)S[C@@H]1c1ccccc1C1CCNCC1` [Compound 501, 4,5-Dihydro-3-(1-(2-((2R,5S)-3-(3,3-dimethylbutyl)-4-oxo-2-(2-(piperidin-4-yl)phenyl)thiazolidin-5-yl)acetyl)piperidin-4-yl)-1H-benzo[d][1,3]diazepin-2(3H)-one], in test [1], the Ki was less than 1000 nM. Further, the IC50 in test [2] was less than 1000 nM.
`CC(C)(C)CCN1C(=O)[C@H](CC(=O)N2CCC(N3CCc4ccccc4NC3=O)CC2)S[C@H]1c1ccccc1C1CCNCC1` [Compound 502, 4,5-Dihydro-3-(1-(2-((2S,5S)-3-(3,3-dimethylbutyl)-4-oxo-2-(2-(piperidin-4-yl)phenyl)thiazolidin-5-yl)acetyl)piperidin-4-yl)-1H-benzo[d][1,3]diazepin-2(3H)-one] came in with a Ki in test [1] of less than 1000 nM. For the same molecule, the IC50 in test [2] is less than 1000 nM.
Turning to `CC(C)(C)N1CCN(c2c(F)cccc2[C@H]2S[C@@H](CC(=O)N3CCC(N4CCc5ccccc5NC4=O)CC3)C(=O)N2CCc2ccc(F)cc2)CC1` [Compound 503], in test [1], the Ki is less than 1000 nM. Besides, the IC50 in test [2] is less than 1000 nM.
`CC(C)(C)N1CCN(c2c(F)cccc2[C@@H]2S[C@@H](CC(=O)N3CCC(N4CCc5ccccc5NC4=O)CC3)C(=O)N2CCc2ccc(F)cc2)CC1` [Compound 504] came in with an inhibitory constant (Ki) in test [1] of less than 1000 nM. In addition, the half-maximal inhibitory concentration (IC50) in test [2] is less than 1000 nM.
Regarding `CC(C)(C)N1CCN(c2c(F)cccc2C2S[C@@H](CC(=O)N3CCC(n4c(=O)[nH]c5ncccc54)CC3)C(=O)N2CCc2ccc(F)cc2)CC1` (stereo partly drawn) [Compound 505], in test [1], the Ki is less than 1000 nM. In addition, in test [2], the IC50 was less than 1000 nM.
The molecule `CC(C)(C)N1CCN(c2c(F)cccc2[C@H]2S[C@@H](CC(=O)N3CCC(N4CCc5ccccc5NC4=O)CC3)C(=O)N2CCc2ccccc2)CC1` [Compound 507] displayed a Ki in test [1] of less than 1000 nM. Further, the IC50 in test [2] is less than 1000 nM.
`CC(C)(C)N1CCN(c2c(F)cccc2[C@@H]2S[C@@H](CC(=O)N3CCC(N4CCc5ccccc5NC4=O)CC3)C(=O)N2CCc2ccccc2)CC1` [Compound 508] returned a Ki in test [1] of less than 1000 nM. In test [2], the IC50 was less than 1000 nM.
Regarding `CC(C)(C)N1CCN(c2c(F)cccc2C2S[C@@H](CC(=O)N3CCC(n4c(=O)[nH]c5ncccc54)CC3)C(=O)N2CCc2ccccc2)CC1` (stereo partly drawn) [Compound 509], in test [1], the inhibition constant (Ki) is less than 1000 nM. Also, in test [2], the IC50 is less than 1000 nM.
In test [1], `CC(C)(C)CCN1C(=O)[C@H](CC(=O)N2CCC(N3CCc4ccccc4NC3=O)CC2)SC1c1ccccc1N1CCN(C(=O)OC(C)(C)C)CC1=O` (stereo partly drawn) [Compound 510] returned a Ki of less than 1000 nM. Further, the IC50 in test [2] is less than 1000 nM.
As for `CC(C)(C)CCN1C(=O)[C@H](CC(=O)N2CCC(N3CCc4ccccc4NC3=O)CC2)SC1c1ccccc1N1CCNCC1=O` (stereo partly drawn) [Compound 511], the inhibitory constant (Ki) in test [1] is less than 1000 nM. In addition, the IC50 in test [2] is less than 1000 nM.
Turning to `CC(C)(C)CCN1C(=O)[C@H](CC(=O)N2CCC(N3CCc4ccccc4NC3=O)CC2)SC1c1ccccc1N1CCNCC1=O` (stereo partly drawn) [Compound 512], the Ki in test [1] is less than 1000 nM. The IC50 in test [2] was less than 1000 nM.
For the molecule `CN(C)CCNc1c(F)cccc1C1S[C@@H](CC(=O)N2CCC(N3CCc4ccccc4NC3=O)CC2)C(=O)N1CCC(C)(C)C` (stereo partly drawn) [Compound 513, 3-(1-(2-((5S)-2-(2-(2-(Dimethylamino)ethylamino)-3-fluorophenyl)-3-(3,3-dimethylbutyl)-4-oxothiazolidin-5-yl)acetyl)piperidin-4-yl)-4,5-dihydro-1H-benzo[d][1,3]diazepin-2(3H)-one], the Ki in test [1] is less than 1000 nM. Moreover, the concentration for half-maximal inhibition (IC50) in test [2] is less than 1000 nM.
The molecule `CC(C)(C)N1CCN(c2c(F)cccc2[C@H]2S[C@@H](CC(=O)N3CCC(N4CCc5ccccc5NC4=O)CC3)C(=O)N2CC2CCCCC2)CC1` [Compound 514] came in with a Ki in test [1] of less than 1000 nM. Moreover, the IC50 in test [2] was less than 1000 nM.
Regarding `CC(C)(C)N1CCN(c2c(F)cccc2C2S[C@@H](CC(=O)N3CCC(N4CCc5ccccc5NC4=O)CC3)C(=O)N2CC2CCCCC2)CC1` (stereo partly drawn) [Compound 515], in test [1], the Ki was less than 1000 nM. In addition, in test [2], the IC50 is less than 1000 nM.
In turn, `CC(C)(C)N1CCN(c2c(F)cccc2C2S[C@@H](CC(=O)N3CCC(n4c(=O)[nH]c5ncccc54)CC3)C(=O)N2CC2CCCCC2)CC1` (stereo partly drawn) [Compound 516] came in with a Ki in test [1] of less than 1000 nM. For the same molecule, the IC50 in test [2] was less than 1000 nM.
In turn, `CN(C)CCNc1c(F)cccc1C1S[C@@H](CC(=O)N2CCC(n3c(=O)[nH]c4ncccc43)CC2)C(=O)N1CCC(C)(C)C` (stereo partly drawn) [Compound 518, 1-(1-(2-((5S)-2-(2-(2-(Dimethylamino)ethylamino)-3-fluorophenyl)-3-(3,3-dimethylbutyl)-4-oxothiazolidin-5-yl)acetyl)piperidin-4-yl)-1H-imidazo[4,5-b]pyridin-2(3H)-one] displayed a Ki in test [1] of less than 1000 nM. Besides, the IC50 in test [2] is less than 1000 nM.
Regarding `CC(C)CCN1CCC(c2ncc(C3S[C@@H](CC(=O)N4CCC(N5CCc6ccccc6NC5=O)CC4)C(=O)N3CCC(C)(C)C)s2)CC1` (stereo partly drawn) [Compound 519], the inhibitory constant (Ki) in test [1] was less than 1000 nM. Also, the IC50 in test [2] was less than 1000 nM.
`CC(C)(C)CCN1C(=O)[C@H](CC(=O)N2CCC(N3CCc4ccccc4NC3=O)CC2)SC1c1cccc(F)c1NCCN1CCCCC1` (stereo partly drawn) [Compound 520, 3-(1-(2-((5S)-2-(2-(2-(Piperidin-1-yl)ethylamino)-3-fluorophenyl)-3-(3,3-dimethylbutyl)-4-oxothiazolidin-5-yl)acetyl)piperidin-4-yl)-4,5-dihydro-1H-benzo[d][1,3]diazepin-2(3H)-one] registered a Ki in test [1] of less than 1000 nM. Also, the IC50 in test [2] is less than 1000 nM.
For the molecule `CCCCN1C(=O)[C@H](CC(=O)N2CCC(N3CCc4ccccc4NC3=O)CC2)SC1c1cccc(F)c1N1CCN(C(C)(C)C)CC1` (stereo partly drawn) [Compound 521], the inhibition constant Ki in test [1] was less than 1000 nM. In addition, the IC50 in test [2] was less than 1000 nM.
As for `CCCCN1C(=O)[C@H](CC(=O)N2CCC(N3CCc4ccccc4NC3=O)CC2)SC1c1cccc(F)c1N1CCN(C(C)(C)C)CC1` (stereo partly drawn) [Compound 522], in test [1], the Ki was less than 1000 nM. In test [2], the IC50 is less than 1000 nM.
In test [1], `CC(C)(C)N1CCN(c2c(F)cccc2[C@H]2S[C@@H](CC(=O)N3CCC(N4CCc5ccccc5NC4=O)CC3)C(=O)N2CC2CCOCC2)CC1` [Compound 523] registered a Ki of less than 1000 nM. In test [2], the IC50 was less than 1000 nM.
In test [1], `CC(C)(C)N1CCN(c2c(F)cccc2[C@@H]2S[C@@H](CC(=O)N3CCC(N4CCc5ccccc5NC4=O)CC3)C(=O)N2CC2CCOCC2)CC1` [Compound 524] came in with an inhibition constant (Ki) of less than 1000 nM. In addition, the IC50 in test [2] is less than 1000 nM.
In test [1], `CC(C)(C)N1CCN(c2c(F)cccc2C2S[C@@H](CC(=O)N3CCC(n4c(=O)[nH]c5ncccc54)CC3)C(=O)N2CC2CCOCC2)CC1` (stereo partly drawn) [Compound 525] gave an inhibition constant Ki of less than 1000 nM. In addition, the IC50 in test [2] is less than 1000 nM.
`CC(C)OCCN1C(=O)[C@H](CC(=O)N2CCC(N3CCc4ccccc4NC3=O)CC2)SC1c1cccc(F)c1N1CCN(C(C)(C)C)CC1` (stereo partly drawn) [Compound 526] showed a Ki in test [1] of less than 1000 nM. In test [2], the IC50 was less than 1000 nM.
Regarding `CC(C)(C)CCN1C(=O)[C@H](CC(=O)N2CCC(n3c(=O)[nH]c4ncccc43)CC2)SC1c1ccccc1N1CCNCC1=O` (stereo partly drawn) [Compound 527], the Ki in test [1] is less than 1000 nM. For the same molecule, the IC50 in test [2] was less than 1000 nM.
